Reference: patent US8933230B2, “Phosphorus-containing group-substituted quinoline, its preparation process, medical composition containing the compounds and application” (priority 2011, dated 2015)

Assays:
Test in all cases: KinomeScan kinase panel
Type in all cases: binding
[1] = target: T1, ABL1(E255K)-phosphorylated (Homo sapiens, UniProt P00519, E255K)
T1 construct: purchased DiscoveRx Corporation (KinomeScan)
Outline: (§1)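 Compound is added at 1000 nM to each assay of the KinomeScan 442-kinase panel. Inhibitory effect is then recorded per kinase.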

ACVRL1 = target: T2, ACVRL1 (Homo sapiens, UniProt P37023)
T2 construct: purchased DiscoveRx Corporation (KinomeScan)
Outline: as §1

ARK5 = target: T3, ARK5 (Homo sapiens, UniProt O60285)
T3 construct: purchased DiscoveRx Corporation (KinomeScan)
Outline: as §1

ASK2 = target: T4, ASK2 (Homo sapiens, UniProt O95382)
T4 construct: purchased DiscoveRx Corporation (KinomeScan)
Outline: as §1

BMPR2 = target: T5, BMPR2 (Homo sapiens, UniProt Q13873)
T5 construct: purchased DiscoveRx Corporation (KinomeScan)
Outline: as §1

BMX = target: T6, BMX (Homo sapiens, UniProt P51813)
T6 construct: purchased DiscoveRx Corporation (KinomeScan)
Outline: as §1

CLK2 = target: T7, CLK2 (Homo sapiens, UniProt P49760)
T7 construct: purchased DiscoveRx Corporation (KinomeScan)
Outline: as §1

CSNK1A1 = target: T8, CSNK1A1 (Homo sapiens, UniProt P48729)
T8 construct: purchased DiscoveRx Corporation (KinomeScan)
Outline: as §1

DCAMKL2 = target: T9, DCAMKL2 (Homo sapiens, UniProt Q8N568)
T9 construct: purchased DiscoveRx Corporation (KinomeScan)
Outline: as §1

EPHA7 = target: T10, EPHA7 (Homo sapiens, UniProt Q15375)
T10 construct: purchased DiscoveRx Corporation (KinomeScan)
Outline: as §1

ERK1 = target: T11, ERK1 (Homo sapiens, UniProt P27361)
T11 construct: purchased DiscoveRx Corporation (KinomeScan)
Outline: as §1

ERK8 = target: T12, ERK8 (Homo sapiens, UniProt Q8TD08)
T12 construct: purchased DiscoveRx Corporation (KinomeScan)
Outline: as §1

FLT3(D835H) = target: T13, FLT3(D835H) (Homo sapiens, UniProt P36888, D835H)
T13 construct: purchased DiscoveRx Corporation (KinomeScan)
Outline: as §1

FLT3(ITD) = test system: FLT3(ITD)
Outline: as §1

FLT3(K663Q) = target: T14, FLT3(K663Q) (Homo sapiens, UniProt P36888, K663Q)
T14 construct: purchased DiscoveRx Corporation (KinomeScan)
Outline: as §1

GAK = target: T15, GAK (Homo sapiens, UniProt O14976)
T15 construct: purchased DiscoveRx Corporation (KinomeScan)
Outline: as §1

LIMK2 = target: T16, LIMK2 (Homo sapiens, UniProt P53671)
T16 construct: purchased DiscoveRx Corporation (KinomeScan)
Outline: as §1

LOK = target: T17, LOK (Homo sapiens, UniProt O94804)
T17 construct: purchased DiscoveRx Corporation (KinomeScan)
Outline: as §1

MAP3K3 = target: T18, MAP3K3 (Homo sapiens, UniProt Q99759)
T18 construct: purchased DiscoveRx Corporation (KinomeScan)
Outline: as §1

MEK5 = target: T19, MEK5 (Homo sapiens, UniProt Q13163)
T19 construct: purchased DiscoveRx Corporation (KinomeScan)
Outline: as §1

MET(M1250T) = target: T20, MET(M1250T) (Homo sapiens, UniProt P08581, M1250T)
T20 construct: purchased DiscoveRx Corporation (KinomeScan)
Outline: as §1

MUSK = target: T21, MUSK (Homo sapiens, UniProt O15146)
T21 construct: purchased DiscoveRx Corporation (KinomeScan)
Outline: as §1

MYLK2 = target: T22, MYLK2 (Homo sapiens, UniProt Q9H1R3)
T22 construct: purchased DiscoveRx Corporation (KinomeScan)
Outline: as §1

P38-alpha = target: T23, P38-alpha (Homo sapiens, UniProt Q16539)
T23 construct: purchased DiscoveRx Corporation (KinomeScan panel)
Outline: as §1

P38-beta = target: T24, P38-beta (Homo sapiens, UniProt Q15759)
T24 construct: purchased DiscoveRx Corporation (KinomeScan panel)
Outline: as §1

PIK3C2G = target: T25, PIK3C2G (Homo sapiens, UniProt O75747)
T25 construct: purchased DiscoveRx Corporation (KinomeScan)
Outline: as §1

PIK3CA (H1047L) = target: T26, PIK3CA (H1047L) (Homo sapiens, UniProt P42336, H1047L)
T26 construct: purchased DiscoveRx Corporation (KinomeScan)
Outline: as §1

PIK3CA(M1043I) = target: T27, PIK3CA(M1043I) (Homo sapiens, UniProt P42336, M1043I)
T27 construct: purchased DiscoveRx Corporation (KinomeScan)
Outline: as §1

PIP5K2C = target: T28, PIP5K2C (Homo sapiens, UniProt Q8TBX8)
T28 construct: purchased DiscoveRx Corporation (KinomeScan)
Outline: as §1

PKMYT1 = target: T29, PKMYT1 (Homo sapiens, UniProt Q99640)
T29 construct: purchased DiscoveRx Corporation (KinomeScan)
Outline: as §1

PRKD3 = target: T30, PRKD3 (Homo sapiens, UniProt O94806)
T30 construct: purchased DiscoveRx Corporation (KinomeScan)
Outline: as §1

[2] = target: T31, RSK2(Kin.Dom.1-N-terminal) (Homo sapiens, UniProt P51812)
T31 construct: Kin.Dom.1; purchased DiscoveRx Corporation (KinomeScan)
Outline: as §1

SNARK = target: T32, SNARK (Homo sapiens, UniProt Q9H093)
T32 construct: purchased DiscoveRx Corporation (KinomeScan)
Outline: as §1

TAOK1 = target: T33, TAOK1 (Homo sapiens, UniProt Q7L7X3)
T33 construct: purchased DiscoveRx Corporation (KinomeScan)
Outline: as §1

YANK2 = target: T34, YANK2 (Homo sapiens, UniProt Q9NY57)
T34 construct: purchased DiscoveRx Corporation (KinomeScan service)
Outline: as §1

T15 sequence (O14976 whole entry): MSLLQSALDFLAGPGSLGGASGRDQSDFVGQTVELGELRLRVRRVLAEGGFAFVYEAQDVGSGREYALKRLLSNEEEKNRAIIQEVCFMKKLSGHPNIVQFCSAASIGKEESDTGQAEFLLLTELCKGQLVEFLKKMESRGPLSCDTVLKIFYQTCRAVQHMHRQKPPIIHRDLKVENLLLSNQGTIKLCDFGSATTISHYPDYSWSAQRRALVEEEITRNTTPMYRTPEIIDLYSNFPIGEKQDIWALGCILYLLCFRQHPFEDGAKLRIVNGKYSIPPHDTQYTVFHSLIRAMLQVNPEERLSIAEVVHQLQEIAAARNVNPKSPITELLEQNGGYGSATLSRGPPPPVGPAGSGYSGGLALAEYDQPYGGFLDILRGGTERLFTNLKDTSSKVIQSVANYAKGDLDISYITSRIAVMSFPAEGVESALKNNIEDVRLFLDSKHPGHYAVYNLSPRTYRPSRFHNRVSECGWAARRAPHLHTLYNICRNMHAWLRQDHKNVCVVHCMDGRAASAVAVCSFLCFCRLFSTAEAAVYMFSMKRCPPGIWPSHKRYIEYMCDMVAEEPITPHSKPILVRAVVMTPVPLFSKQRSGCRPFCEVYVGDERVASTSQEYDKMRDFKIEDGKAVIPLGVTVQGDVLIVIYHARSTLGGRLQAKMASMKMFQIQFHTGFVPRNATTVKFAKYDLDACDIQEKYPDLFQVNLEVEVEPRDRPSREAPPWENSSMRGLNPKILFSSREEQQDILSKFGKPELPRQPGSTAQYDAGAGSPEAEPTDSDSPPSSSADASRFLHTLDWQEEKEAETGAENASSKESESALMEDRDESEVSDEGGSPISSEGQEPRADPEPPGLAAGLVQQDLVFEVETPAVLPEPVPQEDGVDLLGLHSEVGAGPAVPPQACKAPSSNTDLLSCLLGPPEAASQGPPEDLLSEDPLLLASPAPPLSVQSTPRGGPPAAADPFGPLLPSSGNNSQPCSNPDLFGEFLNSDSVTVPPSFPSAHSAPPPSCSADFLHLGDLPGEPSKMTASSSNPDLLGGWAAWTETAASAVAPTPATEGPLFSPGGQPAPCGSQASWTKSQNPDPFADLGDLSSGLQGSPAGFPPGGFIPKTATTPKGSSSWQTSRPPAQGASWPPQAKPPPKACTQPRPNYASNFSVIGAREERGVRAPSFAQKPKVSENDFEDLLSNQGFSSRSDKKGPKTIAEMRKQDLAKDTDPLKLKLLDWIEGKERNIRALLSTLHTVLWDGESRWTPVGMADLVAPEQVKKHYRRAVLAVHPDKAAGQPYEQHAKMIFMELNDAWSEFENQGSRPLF
T4 sequence (O95382 whole entry): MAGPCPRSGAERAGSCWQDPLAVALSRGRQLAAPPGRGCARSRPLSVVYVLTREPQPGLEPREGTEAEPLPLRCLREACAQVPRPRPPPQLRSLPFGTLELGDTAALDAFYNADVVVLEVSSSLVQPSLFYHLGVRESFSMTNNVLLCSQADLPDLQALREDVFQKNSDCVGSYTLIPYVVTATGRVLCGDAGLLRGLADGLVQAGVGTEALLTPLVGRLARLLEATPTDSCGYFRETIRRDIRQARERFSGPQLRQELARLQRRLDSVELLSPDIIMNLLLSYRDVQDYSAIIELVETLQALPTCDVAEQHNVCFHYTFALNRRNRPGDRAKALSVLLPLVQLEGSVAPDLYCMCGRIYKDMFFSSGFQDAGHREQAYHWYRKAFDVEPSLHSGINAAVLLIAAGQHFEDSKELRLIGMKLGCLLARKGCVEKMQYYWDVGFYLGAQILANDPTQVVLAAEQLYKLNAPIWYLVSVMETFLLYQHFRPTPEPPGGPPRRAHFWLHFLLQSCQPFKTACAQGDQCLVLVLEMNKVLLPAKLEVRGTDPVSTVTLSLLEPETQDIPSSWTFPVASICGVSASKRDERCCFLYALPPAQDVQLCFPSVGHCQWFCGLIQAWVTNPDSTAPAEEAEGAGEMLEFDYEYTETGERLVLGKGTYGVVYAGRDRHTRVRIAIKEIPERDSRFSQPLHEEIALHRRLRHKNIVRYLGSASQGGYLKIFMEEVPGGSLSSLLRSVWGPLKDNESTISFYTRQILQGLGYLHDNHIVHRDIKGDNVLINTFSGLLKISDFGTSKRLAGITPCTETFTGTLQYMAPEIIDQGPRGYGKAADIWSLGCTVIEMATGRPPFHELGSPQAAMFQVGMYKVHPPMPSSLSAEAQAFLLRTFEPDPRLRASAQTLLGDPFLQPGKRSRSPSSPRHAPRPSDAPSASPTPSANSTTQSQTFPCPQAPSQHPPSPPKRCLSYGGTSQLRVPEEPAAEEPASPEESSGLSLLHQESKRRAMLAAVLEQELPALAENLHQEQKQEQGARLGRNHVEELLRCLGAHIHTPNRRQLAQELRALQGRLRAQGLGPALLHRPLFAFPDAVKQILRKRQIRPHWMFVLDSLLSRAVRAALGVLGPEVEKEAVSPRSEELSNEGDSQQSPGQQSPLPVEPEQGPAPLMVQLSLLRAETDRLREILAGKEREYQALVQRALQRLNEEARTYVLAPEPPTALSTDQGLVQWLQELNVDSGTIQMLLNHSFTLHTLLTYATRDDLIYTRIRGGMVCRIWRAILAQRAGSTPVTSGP
T27 sequence (P42336 whole entry M1043I): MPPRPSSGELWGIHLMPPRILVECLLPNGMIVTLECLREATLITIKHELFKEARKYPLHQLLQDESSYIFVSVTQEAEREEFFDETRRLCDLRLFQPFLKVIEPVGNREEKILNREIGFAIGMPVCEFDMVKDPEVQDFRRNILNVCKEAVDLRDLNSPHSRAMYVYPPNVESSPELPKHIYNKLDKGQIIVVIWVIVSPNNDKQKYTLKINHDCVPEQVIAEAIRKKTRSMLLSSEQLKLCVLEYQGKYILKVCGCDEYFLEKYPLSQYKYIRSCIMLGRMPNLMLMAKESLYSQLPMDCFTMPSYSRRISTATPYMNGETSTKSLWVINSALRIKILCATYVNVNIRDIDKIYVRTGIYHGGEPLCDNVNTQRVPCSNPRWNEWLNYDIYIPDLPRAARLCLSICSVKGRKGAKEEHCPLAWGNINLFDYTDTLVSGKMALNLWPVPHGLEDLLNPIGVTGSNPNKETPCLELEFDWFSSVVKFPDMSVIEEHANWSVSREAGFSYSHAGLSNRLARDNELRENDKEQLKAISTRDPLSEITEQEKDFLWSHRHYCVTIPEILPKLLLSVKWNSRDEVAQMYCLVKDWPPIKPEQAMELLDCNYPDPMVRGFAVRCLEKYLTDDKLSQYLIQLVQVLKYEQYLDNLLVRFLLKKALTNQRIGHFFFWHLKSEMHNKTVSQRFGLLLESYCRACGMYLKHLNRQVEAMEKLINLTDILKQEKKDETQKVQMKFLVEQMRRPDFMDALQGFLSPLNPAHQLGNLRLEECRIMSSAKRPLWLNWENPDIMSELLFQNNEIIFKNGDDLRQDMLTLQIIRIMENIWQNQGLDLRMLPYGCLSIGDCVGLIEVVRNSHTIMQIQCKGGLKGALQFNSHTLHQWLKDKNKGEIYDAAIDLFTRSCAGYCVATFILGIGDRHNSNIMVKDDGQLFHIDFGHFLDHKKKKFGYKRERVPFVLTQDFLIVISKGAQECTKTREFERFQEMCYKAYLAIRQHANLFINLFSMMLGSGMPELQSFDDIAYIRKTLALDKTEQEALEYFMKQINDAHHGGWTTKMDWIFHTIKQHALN
T2 sequence (P37023 22-503): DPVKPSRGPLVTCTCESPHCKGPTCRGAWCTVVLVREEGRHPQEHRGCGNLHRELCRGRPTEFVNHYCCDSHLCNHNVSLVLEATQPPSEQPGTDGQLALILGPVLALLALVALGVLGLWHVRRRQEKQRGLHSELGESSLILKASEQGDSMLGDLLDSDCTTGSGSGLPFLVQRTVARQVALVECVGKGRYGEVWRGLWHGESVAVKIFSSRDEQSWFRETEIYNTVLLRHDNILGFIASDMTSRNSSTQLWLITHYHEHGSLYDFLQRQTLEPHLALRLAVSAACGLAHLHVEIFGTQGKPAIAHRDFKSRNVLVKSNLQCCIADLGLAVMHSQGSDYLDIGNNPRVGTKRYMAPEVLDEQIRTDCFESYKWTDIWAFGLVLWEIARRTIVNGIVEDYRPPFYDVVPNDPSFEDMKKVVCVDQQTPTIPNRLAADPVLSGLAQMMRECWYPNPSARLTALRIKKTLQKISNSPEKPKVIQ
T21 sequence (O15146 24-869): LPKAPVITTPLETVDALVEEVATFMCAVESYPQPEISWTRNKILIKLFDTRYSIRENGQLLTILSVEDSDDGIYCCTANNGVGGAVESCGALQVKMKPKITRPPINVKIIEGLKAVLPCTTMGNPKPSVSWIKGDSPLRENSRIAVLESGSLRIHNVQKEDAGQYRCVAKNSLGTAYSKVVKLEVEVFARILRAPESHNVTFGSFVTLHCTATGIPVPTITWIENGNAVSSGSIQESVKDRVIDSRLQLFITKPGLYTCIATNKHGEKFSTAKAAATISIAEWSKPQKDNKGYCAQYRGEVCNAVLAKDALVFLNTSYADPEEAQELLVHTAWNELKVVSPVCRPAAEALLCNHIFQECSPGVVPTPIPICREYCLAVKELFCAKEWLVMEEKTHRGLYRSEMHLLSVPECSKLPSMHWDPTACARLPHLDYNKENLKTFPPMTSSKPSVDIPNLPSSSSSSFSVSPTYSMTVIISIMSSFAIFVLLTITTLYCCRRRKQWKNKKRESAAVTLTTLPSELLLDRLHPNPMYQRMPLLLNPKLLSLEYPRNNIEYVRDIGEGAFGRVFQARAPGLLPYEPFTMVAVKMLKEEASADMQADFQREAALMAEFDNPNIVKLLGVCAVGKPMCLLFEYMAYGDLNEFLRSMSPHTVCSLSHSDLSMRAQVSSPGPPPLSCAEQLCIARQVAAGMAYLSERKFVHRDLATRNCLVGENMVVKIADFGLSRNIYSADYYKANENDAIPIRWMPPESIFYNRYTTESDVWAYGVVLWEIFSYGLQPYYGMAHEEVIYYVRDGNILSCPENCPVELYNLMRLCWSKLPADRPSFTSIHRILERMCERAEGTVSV
T26 sequence (P42336 whole entry H1047L): as the sequence (P42336 whole entry M1043I) above, with I1043M, H1047L counted along it

Compound: CCOP(=O)(CN1CCC(COc2cc3nccc(Oc4ccc(NC(=O)C5(C(=O)Nc6ccc(F)cc6)CC5)cc4F)c3cc2OC)CC1)OCC [Example 10, N1-[4-[[7-[[1-(diethoxyphosphorylmethyl)-4-piperidinyl]methoxyl]-6-methoxyl-4-quinolyl]oxyl]-3-fluorophenyl]-N1′-(4-fluorophenyl)cyclopropane-1,1-dicarboxamide]
- % Ctrl@1000 nM [1]: 63 % Ctrl
- % Ctrl@1000 nM (ACVRL1): 100 % Ctrl
- % Ctrl@1000 nM (ARK5): 100 % Ctrl
- % Ctrl@1000 nM (ASK2): 100 % Ctrl
- % Ctrl@1000 nM (BMPR2): 100 % Ctrl
- % Ctrl@1000 nM (BMX): 92 % Ctrl
- % Ctrl@1000 nM (CLK2): 78 % Ctrl
- % Ctrl@1000 nM (CSNK1A1): 100 % Ctrl
- % Ctrl@1000 nM (DCAMKL2): 100 % Ctrl
- % Ctrl@1000 nM (EPHA7): 0.8 % Ctrl
- % Ctrl@1000 nM (ERK1): 99 % Ctrl
- % Ctrl@1000 nM (ERK8): 95 % Ctrl
- % Ctrl@1000 nM (FLT3(D835H)): 0.6 % Ctrl
- % Ctrl@1000 nM (FLT3(ITD)): 2.8 % Ctrl
- % Ctrl@1000 nM (FLT3(K663Q)): 0.55 % Ctrl
- % Ctrl@1000 nM (GAK): 100 % Ctrl
- % Ctrl@1000 nM (LIMK2): 100 % Ctrl
- % Ctrl@1000 nM (LOK): 0 % Ctrl
- % Ctrl@1000 nM (MAP3K3): 100 % Ctrl
- % Ctrl@1000 nM (MEK5): 0.25 % Ctrl
- % Ctrl@1000 nM (MET(M1250T)): 3 % Ctrl
- % Ctrl@1000 nM (MUSK): 13 % Ctrl
- % Ctrl@1000 nM (MYLK2): 100 % Ctrl
- % Ctrl@1000 nM (P38-alpha): 53 % Ctrl
- % Ctrl@1000 nM (P38-beta): 87 % Ctrl
- % Ctrl@1000 nM (PIK3C2G): 98 % Ctrl
- % Ctrl@1000 nM (PIK3CA (H1047L)): 100 % Ctrl
- % Ctrl@1000 nM (PIK3CA(M1043I)): 100 % Ctrl
- % Ctrl@1000 nM (PIP5K2C): 38 % Ctrl
- % Ctrl@1000 nM (PKMYT1): 100 % Ctrl
- % Ctrl@1000 nM (PRKD3): 88 % Ctrl
- % Ctrl@1000 nM [2]: 100 % Ctrl
- % Ctrl@1000 nM (SNARK): 100 % Ctrl
- % Ctrl@1000 nM (TAOK1): 100 % Ctrl
- % Ctrl@1000 nM (YANK2): 100 % Ctrl
